“And” between values parts separate entries of the source, which are not always exact repeats. Equal values may be shown once.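 Compound exposure: 48 hours, 5 concentrations, 96-well plates. At the GI50, growth is halved. The concentration for full growth arrest is given as TGI.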
What was measured:
Assay in all cases: NCI tumour cell line growth inhibition, 48 h
[1] = system: UO-31 renal
[2] = system: UACC-257 melanoma
[3] = system: A498 renal
[4] = system: EKVX NSCLC
[5] = system: NCI-H460 lung
[6] = system: SR leukemia
[7] = system: DU-145 prostate
[8] = system: RXF 393 renal
[9] = system: BT-549 breast
[10] = system: MDA-MB-231 breast

SMILES | TGI [1] | TGI [2] | TGI [3] [µM] | TGI [4] | TGI [5] | TGI [6] | TGI [7] [µM] | TGI [8] | TGI [9] [µM] | TGI [10] [µM] | GI50 [8] [µM] | GI50 [1] [µM] | GI50 [2] [µM] | GI50 [4] [µM] | GI50 [5] [µM] | GI50 [6] [µM] | GI50 [7] [µM] | GI50 [9] [µM] | GI50 [10] [µM] | GI50 [3] [µM]
Cn1c(=O)c2ccc(-c3ccc(Br)cc3)nc2n(C)c1=O | > 100 µM | > 100 µM | > 100 | > 100 µM | > 100 µM | > 100 µM |  |  |  |  |  |  |  |  |  |  |  |  |  | 
Cn1c2ccccc2c(=O)c2c(O)cc3c(c21)CC(C1(C)CO1)O3 (stereo unspecified) | 4.09 µM | 13.1 µM | 33.9 | 14 µM | 13.6 µM |  | 36.1 | 2.85 µM | 4.5 | 5.85 |  |  |  |  |  |  |  |  |  | 
C=C(C)C1CC=C(C)CC1 (stereo unspecified) | > 100 µM and 1620 µM | > 100 µM and 1850 µM | 1610 | > 100 µM and 1830 µM | > 100 µM and 1730 µM | > 100 µM and 2050 µM |  | > 100 µM and 1730 µM |  |  | > 100 | > 100 | > 100 | > 100 | > 100 | > 100 |  |  |  | 
NC1=NN(c2ccccc2)C(=O)C1/C(=N\NC(=O)c1cc2ccccc2cc1O)C(=O)Nc1cccc(C(F)(F)F)c1 (stereo unspecified) | > 100 µM | 71.1 µM |  | > 100 µM | > 100 µM |  |  | > 100 µM |  |  |  |  |  |  |  |  |  |  |  | 
N.N.O=P([O-])([O-])CN(CCN(CP(=O)([O-])[O-])CP(=O)([O-])[O-])CP(=O)([O-])[O-].[Pt+2] | > 100 µM | > 100 µM |  | > 100 µM | > 100 µM |  |  | > 100 µM |  |  | > 100 | > 100 | > 100 | > 100 | > 100 |  |  |  |  | 
Cc1ccc(NC(=O)CC/C(CC(=O)C(C)(C)C)=N/NC(=O)C[N+](C)(C)C)cc1C | > 100 µM | > 100 µM |  | > 100 µM | > 100 µM | > 100 µM |  | > 100 µM |  |  |  |  |  |  |  |  |  |  |  | 
CCOC(=O)c1ccc2c(c1)nc(/C=C/c1ccc(Cl)cc1)n2-c1cc(C(C)(C)C)[nH]n1 | 25.3 µM | > 100 µM | 41.7 |  | > 100 µM |  | > 100 | 6.48 µM | 25.6 | 7.57 | 2.21 | 2.71 | 6.84 |  | 6.28 |  | 21.5 | 4.54 | 2.37 | 3.03
CSCC[C@H](NC(=O)[C@H](CC(C)C)NC(=O)[C@@H](Cc1ccccc1)NC(=O)CNC(=O)[C@@H](NC(=O)[C@H](C)NC(=O)[C@H](Cc1c[nH]c2ccccc12)NC(=O)[C@H](CCC(N)=O)NC(=O)[C@H](N)CC(N)=O)C(C)C)C(N)=O |  | > 12.5 µM | > 12.5 | > 12.5 µM | > 12.5 µM | 10.7 µM | > 12.5 | > 12.5 µM |  | > 12.5 |  |  |  |  |  |  |  |  |  | 
COc1cccc(NC(=O)C(C)(C)C)c1SSc1c(NC(=O)C(C)(C)C)cccc1OC | > 88.9 µM | 51.4 µM | > 100 | > 100 µM | > 100 µM | 55.3 µM |  | 35.3 µM |  |  |  |  |  |  |  |  |  |  |  | 
C/C=C(/CCC1NCCC2c3ccccc3NC12)[Si](C)(C)C (stereo unspecified) | 20.2 µM | 14.2 µM |  | 27.4 µM | 12.4 µM | 12.5 µM |  | 19.2 µM |  |  |  |  |  |  |  |  |  |  |  | 
C[C@]12CCC[C@H](O)[C@H]1C[C@H](CO)CC2 | > 100 µM | > 100 µM | > 100 |  | > 100 µM | > 100 µM |  |  |  |  |  |  |  |  |  |  |  |  |  | 
